In PubChem BioAssay AID328 (DTP/NCI, 2004):
Where “and” joins values, the source holds several entries; their conditions need not be identical. Equal entries are not always repeated. Inconclusive results and toxic doses are left out. The calls were made as follows: active = survival T/C of 150% or more; inactive = T/C below 125% in these data.

System: BDF1 mice, P388 leukemia ip, median survival T/C
Assay: NCI In Vivo Anticancer Drug Screen. Data for tumor model P388 Leukemia (intraperitoneal) in B6D2F1 (BDF1) mice
Conditions: endpoint: median survival time, higher = longer survival
In short: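 Antitumour effect was judged in vivo: survival in drug-treated mice, normalised to that of vehicle-dosed controls, gives the reported T/C.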

[1] = dose: 50.0 mg/kg/injection, schedule: Q01DX009 (ip), vehicle: saline with Tween-80
[2] = dose: 50.0 mg/kg/injection, schedule: Q01DX009 (ip), vehicle: Klucel (hydroxypropylcellulose) (HPC)
[3] = dose: 100.0 mg/kg/injection, schedule: Q01DX009 (ip), vehicle: Klucel (hydroxypropylcellulose) (HPC)
[4] = dose: 100.0 mg/kg/injection, schedule: Q04DX003 (ip), vehicle: Klucel (hydroxypropylcellulose) (HPC)
[5] = dose: 200.0 mg/kg/injection, schedule: Q01DX009 (ip), vehicle: Klucel (hydroxypropylcellulose) (HPC)
[6] = dose: 200.0 mg/kg/injection, schedule: Q04DX003 (ip), vehicle: Klucel (hydroxypropylcellulose) (HPC)
[7] = dose: 25.0 mg/kg/injection, schedule: Q04DX003 (ip), vehicle: Klucel (hydroxypropylcellulose) (HPC)
[8] = dose: 50.0 mg/kg/injection, schedule: Q04DX003 (ip), vehicle: Klucel (hydroxypropylcellulose) (HPC)
[9] = dose: 400.0 mg/kg/injection, schedule: Q04DX003 (ip), vehicle: Klucel (hydroxypropylcellulose) (HPC)

Measured: T/C

CCN(CC)CCCC(C)NC(=O)c1ccc(Cl)nc1 (stereo not given)
inactive: dose: 37.5 mg/kg/injection, schedule: Q01DX009 (ip), vehicle: saline with Tween-80 107 % of control | [1] 113 % of control | dose: 50.0 mg/kg/injection, schedule: Q04DX003 (ip), vehicle: saline with Tween-80 103 % of control | dose: 75.0 mg/kg/injection, schedule: Q01DX009 (ip), vehicle: saline with Tween-80 96 % of control | dose: 100.0 mg/kg/injection, schedule: Q04DX003 (ip), vehicle: saline with Tween-80 107 % of control | dose: 150.0 mg/kg/injection, schedule: Q01DX009 (ip), vehicle: saline with Tween-80 117 % of control | dose: 200.0 mg/kg/injection, schedule: Q01DX009 (ip), vehicle: saline with Tween-80 97 % of control | dose: 200.0 mg/kg/injection, schedule: Q04DX003 (ip), vehicle: saline with Tween-80 110 % of control

O=C(NCCCl)NC1c2ccccc2CCc2ccccc21
inactive: [2] 105 % of control | [3] 105 % of control | [4] 95 % of control | [5] 100 % of control | [6] 90 % of control

CC(C)=NNS(=O)(=O)c1ccc(C)cc1
inactive: [7] 106 % of control | [8] 106 % of control | [4] 111 % of control | [6] 111 % of control

NCC(=O)Nc1ccc(O)cc1
inactive: dose: 79.0 mg/kg/injection, schedule: Q04DX003 (ip), vehicle: saline with Tween-80 100 % of control | dose: 118.0 mg/kg/injection, schedule: Q04DX003 (ip), vehicle: saline with Tween-80 104 % of control | dose: 176.0 mg/kg/injection, schedule: Q04DX003 (ip), vehicle: saline with Tween-80 100 % of control | dose: 400.0 mg/kg/injection, schedule: Q01DX009 (ip), vehicle: saline with Tween-80 118 % of control | dose: 600.0 mg/kg/injection, schedule: Q01DX009 (ip), vehicle: saline with Tween-80 90 % of control

CCOc1cc(-c2nccc3cc(OC)c(OC)cc23)cc(OCC)c1OCC
inactive: [3] 110 % of control | [4] 100 % of control | [5] 110 % of control | [6] 100 % of control | dose: 400.0 mg/kg/injection, schedule: Q01DX009 (ip), vehicle: Klucel (hydroxypropylcellulose) (HPC) 110 % of control | [9] 100 % of control

O=C1C(Cl)=C(N2CC2)C(=O)C(Cl)=C1N1CC1
active: dose: 1.25 mg/kg/injection, schedule: Q01DX009 (ip), vehicle: saline with Tween-80 172 % of control | dose: 2.5 mg/kg/injection, schedule: Q01DX009 (ip), vehicle: Klucel (hydroxypropylcellulose) (HPC) 150 % of control | dose: 2.5 mg/kg/injection, schedule: Q01DX009 (ip), vehicle: saline with Tween-80 169 % of control | dose: 5.0 mg/kg/injection, schedule: Q01DX009 (ip), vehicle: Klucel (hydroxypropylcellulose) (HPC) 157 % of control and 165 % of control | dose: 5.0 mg/kg/injection, schedule: Q01DX009 (ip), vehicle: saline with Tween-80 172 % of control | dose: 5.0 mg/kg/injection, schedule: Q01DX009 (ip), vehicle: saline 155 % of control and 165 % of control | dose: 10.0 mg/kg/injection, schedule: Q01DX009 (ip), vehicle: saline with Tween-80 169 % of control | dose: 10.0 mg/kg/injection, schedule: Q01DX009 (ip), vehicle: saline 163 % of control and 200 % of control
inactive: dose: 10.0 mg/kg/injection, schedule: Q01DX009 (ip), vehicle: Klucel (hydroxypropylcellulose) (HPC) 123 % of control

COC(=O)Cc1c[nH]c(=O)[nH]c1=O
inactive: dose: 50.0 mg/kg/injection, schedule: Q01DX009 (ip), vehicle: water 117 % of control | dose: 100.0 mg/kg/injection, schedule: Q01DX009 (ip), vehicle: water 102 % of control | dose: 100.0 mg/kg/injection, schedule: Q04DX003 (ip), vehicle: water 99 % of control | dose: 200.0 mg/kg/injection, schedule: Q01DX009 (ip), vehicle: water 96 % of control | dose: 200.0 mg/kg/injection, schedule: Q04DX003 (ip), vehicle: water 94 % of control

CN(C)CCC(=O)C(=Cc1ccc(Cl)c(Cl)c1)C(=O)CCN(C)C
inactive: dose: 50.0 mg/kg/injection, schedule: Q01DX005 (ip), vehicle: saline 109 % of control | dose: 100.0 mg/kg/injection, schedule: Q01DX005 (ip), vehicle: saline 114 % of control

Cc1cc(C)c(-c2c(C)cc(C)c(C(=O)c3ccc([N+](=O)[O-])cc3)c2C)c(C)c1C(=O)c1ccc([N+](=O)[O-])cc1
inactive: dose: 3.0 mg/kg/injection, schedule: Q01DX009 (ip), vehicle: Klucel (hydroxypropylcellulose) (HPC) 100 % of control | dose: 6.0 mg/kg/injection, schedule: Q01DX009 (ip), vehicle: Klucel (hydroxypropylcellulose) (HPC) 100 % of control | dose: 12.0 mg/kg/injection, schedule: Q01DX009 (ip), vehicle: Klucel (hydroxypropylcellulose) (HPC) 95 % of control | [2] 92 % of control | [4] 95 % of control | [6] 100 % of control | [9] 100 % of control

O=C(NP(=O)(N1CC1)N1CC1)c1cc(I)ccc1I
104 % of control and 202 % of control: dose: 1.0 mg/kg/injection, schedule: Q01DX009 (ip), vehicle: saline
96 % of control and 222 % of control: dose: 4.0 mg/kg/injection, schedule: Q01DX009 (ip), vehicle: saline
inactive: dose: 1.0 mg/kg/injection, schedule: Q01DX001 (oral), vehicle: saline 102 % of control | dose: 1.0 mg/kg/injection, schedule: Q01DX009 (ip), vehicle: saline with Tween-80 110 % of control | dose: 2.0 mg/kg/injection, schedule: Q01DX001 (oral), vehicle: saline 100 % of control | dose: 2.0 mg/kg/injection, schedule: Q01DX009 (ip), vehicle: saline with Tween-80 101 % of control | dose: 4.0 mg/kg/injection, schedule: Q01DX001 (oral), vehicle: saline 101 % of control | dose: 4.0 mg/kg/injection, schedule: Q01DX009 (ip), vehicle: saline with Tween-80 105 % of control | dose: 8.0 mg/kg/injection, schedule: Q01DX001 (oral), vehicle: saline 113 % of control | dose: 16.0 mg/kg/injection, schedule: Q01DX001 (oral), vehicle: saline 113 % of control | dose: 64.0 mg/kg/injection, schedule: Q01DX009 (ip), vehicle: saline with Tween-80 112 % of control | dose: 128.0 mg/kg/injection, schedule: Q01DX009 (ip), vehicle: saline 123 % of control
active: dose: 8.0 mg/kg/injection, schedule: Q01DX009 (ip), vehicle: saline 232 % of control and 150 % of control | dose: 16.0 mg/kg/injection, schedule: Q01DX009 (ip), vehicle: saline with Tween-80 214 % of control | dose: 16.0 mg/kg/injection, schedule: Q01DX009 (ip), vehicle: saline 177 % of control and 191 % of control | dose: 32.0 mg/kg/injection, schedule: Q01DX009 (ip), vehicle: saline with Tween-80 177 % of control | dose: 64.0 mg/kg/injection, schedule: Q01DX001 (oral), vehicle: saline 150 % of control | dose: 256.0 mg/kg/injection, schedule: Q01DX001 (oral), vehicle: saline 161 % of control
93 % of control and 207 % of control: dose: 32.0 mg/kg/injection, schedule: Q01DX009 (ip), vehicle: saline

COc1ccc2c(c1OC)C1(CCN(C)C)CC(=O)CCC1C=C2 (stereo not given)
inactive: dose: 6.25 mg/kg/injection, schedule: Q01DX009 (ip), vehicle: Klucel (hydroxypropylcellulose) (HPC) 90 % of control | dose: 12.5 mg/kg/injection, schedule: Q01DX009 (ip), vehicle: Klucel (hydroxypropylcellulose) (HPC) 105 % of control | dose: 12.5 mg/kg/injection, schedule: Q04DX003 (ip), vehicle: Klucel (hydroxypropylcellulose) (HPC) 86 % of control | dose: 25.0 mg/kg/injection, schedule: Q01DX009 (ip), vehicle: Klucel (hydroxypropylcellulose) (HPC) 100 % of control | [7] 108 % of control | dose: 35.0 mg/kg/injection, schedule: Q01DX009 (ip), vehicle: Klucel (hydroxypropylcellulose) (HPC) 113 % of control | [8] 100 % of control | dose: 55.0 mg/kg/injection, schedule: Q01DX009 (ip), vehicle: Klucel (hydroxypropylcellulose) (HPC) 118 % of control | dose: 80.0 mg/kg/injection, schedule: Q01DX009 (ip), vehicle: Klucel (hydroxypropylcellulose) (HPC) 118 % of control | [4] 95 % of control | dose: 120.0 mg/kg/injection, schedule: Q01DX009 (ip), vehicle: Klucel (hydroxypropylcellulose) (HPC) 100 % of control | dose: 180.0 mg/kg/injection, schedule: Q01DX009 (ip), vehicle: Klucel (hydroxypropylcellulose) (HPC) 108 % of control

Cn1c(C(C)(C)O)cnc1[N+](=O)[O-]
inactive: dose: 12.5 mg/kg/injection, schedule: Q01DX009 (ip), vehicle: saline with Tween-80 105 % of control | dose: 25.0 mg/kg/injection, schedule: Q01DX009 (ip), vehicle: saline with Tween-80 105 % of control | [1] 110 % of control
